Assay results published in PMC5785490, “Retinoic acid prevents immunogenicity of milk lipocalin Bos d 5 through binding to its immunodominant T-cell epitope” (Scientific Reports, 2018).

Target: T1, Bos d 5 (bovine beta-lactoglobulin) (Bos taurus, UniProt P02754)
T1 construct: gene LGB; commercially available bovine beta-lactoglobulin (L0130, Sigma); globular protein of 162 amino acid residues
Experiment: intrinsic tryptophan fluorescence quenching (pH […] °C), supported by ANS displacement assay
Assay type: binding

T1 sequence (P02754 17-178): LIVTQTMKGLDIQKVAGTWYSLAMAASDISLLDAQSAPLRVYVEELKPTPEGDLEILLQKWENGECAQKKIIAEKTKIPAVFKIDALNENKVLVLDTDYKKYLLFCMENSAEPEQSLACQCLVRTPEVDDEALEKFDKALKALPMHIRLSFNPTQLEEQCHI

For `CC1=C(/C=C/C(C)=C/C=C/C(C)=C/C(=O)O)C(C)(C)CCC1` [RA, all trans-retinoic acid], the Kd was 6.1 µM.
